Measured values as given in ChEMBL document CHEMBL1201862, “PubChem BioAssay data set” (2004).
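In this assay, cells in 96-well plates receive the compound at five concentrations for 48 hours. Endpoints are linearly interpolated between the surrounding concentrations. GI50 marks 50% less growth.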 Calls of active or inactive are those of the source. No stated cut-off is given here; in the data, active = GI50 up to about 1.1 µM and inactive = higher.

Tests used:
Experiment in all cases: inhibition of tumour cell growth, NCI panel, 48 h
NCI-H460 = system: NCI-H460
TK-10 = system: TK-10
KM12 = system: KM12
ACHN = system: ACHN
MCF7 = system: MCF7
RPMI-8226 = system: RPMI-8226
PC-3 = system: PC-3
SNB-19 = system: SNB-19
Hs-578T = system: Hs-578T
NCI-H23 = system: NCI-H23
HOP-92 = system: HOP-92
MDA-MB-231 = system: MDA-MB-231
A498 = system: A498
SK-MEL-28 = system: SK-MEL-28
HL-60 = system: HL-60
SF-268 = system: SF-268
HCC 2998 = system: HCC 2998
SN12C = system: SN12C
UACC-62 = system: UACC-62
MDA-MB-435 = system: MDA-MB-435

| Structure (SMILES) | GI50 (NCI-H460) | GI50 (TK-10) | GI50 (KM12) | GI50 (ACHN) | GI50 (MCF7) | GI50 (RPMI-8226) | GI50 (PC-3) | GI50 (SNB-19) | GI50 (Hs-578T) | GI50 (NCI-H23) | GI50 (HOP-92) | GI50 (MDA-MB-231) | GI50 (A498) | GI50 (SK-MEL-28) | GI50 (HL-60) | GI50 (SF-268) | GI50 (HCC 2998) | GI50 (SN12C) | GI50 (UACC-62) | GI50 (MDA-MB-435) |
| --- | --- | --- | --- | --- | --- | --- | --- | --- | --- | --- | --- | --- | --- | --- | --- | --- | --- | --- | --- | --- |
| C[C@]12CC[C@@H]3c4cc(I)c(O)cc4CC[C@H]3[C@@H]1CC[C@@H]2O | 3.64 µM (inactive) | 9.68 µM (inactive) | 3.27 µM (inactive) | 8.75 µM (inactive) | 5.87 µM (inactive) | 7.74 µM (inactive) | 10.7 µM (inactive) | 7.33 µM (inactive) | 2.32 µM (inactive) | 9.89 µM (inactive) | 10.3 µM (inactive) | 5.25 µM (inactive) | 8.43 µM (inactive) | 7.96 µM (inactive) | 5.65 µM (inactive) | 9.38 µM (inactive) | 8.81 µM (inactive) |  |  |  |
| O=C(O)C[C@@H](Cl)[C@H](NC(=O)OCc1ccccc1)C(=O)O | > 100 µM (inactive) | > 100 µM (inactive) | > 100 µM (inactive) | > 100 µM (inactive) |  | > 100 µM (inactive) |  | > 100 µM (inactive) |  | > 100 µM (inactive) | > 100 µM (inactive) |  | > 100 µM (inactive) | > 100 µM (inactive) | > 100 µM (inactive) | > 100 µM (inactive) | > 100 µM (inactive) | > 100 µM (inactive) | > 100 µM (inactive) |  |
| C[C@@H](NS(=O)(=O)c1ccc(NC(=O)c2ccccc2)cc1)C(=O)O | > 100 µM (inactive) | > 100 µM (inactive) | > 100 µM (inactive) | > 100 µM (inactive) |  | > 100 µM (inactive) |  | > 100 µM (inactive) |  | > 100 µM (inactive) | > 100 µM (inactive) |  | > 100 µM (inactive) | > 100 µM (inactive) | > 100 µM (inactive) | > 100 µM (inactive) | > 100 µM (inactive) | > 100 µM (inactive) | > 100 µM (inactive) |  |
| c1csc(-c2ccc(-c3ccc(-c4ccc(-c5cccs5)s4)s3)s2)c1 | > 100 µM (inactive) | > 100 µM (inactive) |  | > 100 µM (inactive) | 8.36 µM (inactive) | > 100 µM (inactive) |  |  | > 100 µM (inactive) | > 100 µM (inactive) | > 100 µM (inactive) |  | > 100 µM (inactive) |  | 14.8 µM (inactive) | > 100 µM (inactive) | > 100 µM (inactive) | > 100 µM (inactive) | > 100 µM (inactive) | > 100 µM (inactive) |
| CC1(C)/C(=N\NC(N)=O)C2CCC1C2 (centres undefined) | > 100 µM (inactive) | > 100 µM (inactive) | > 100 µM (inactive) | > 100 µM (inactive) | > 100 µM (inactive) | > 100 µM (inactive) | > 100 µM (inactive) | > 100 µM (inactive) | > 100 µM (inactive) | > 100 µM (inactive) | > 100 µM (inactive) |  |  | > 100 µM (inactive) | > 100 µM (inactive) | > 100 µM (inactive) |  |  | > 100 µM (inactive) | > 100 µM (inactive) |
| COC(=O)C12OCC34C(CC5C(C)C6=CC(=O)OC6=CC5(C)C3C(O)C1O)OC(=O)C(O)C24 (centres undefined) | 0.204 µM (active) | 1.42 µM (inactive) | 1.21 µM (inactive) | 0.895 µM (active) |  | 0.0809 µM (active) |  | 0.0371 µM (active) |  | 0.238 µM (active) | 0.231 µM (active) |  | 0.544 µM (active) | 0.169 µM (active) | 0.314 µM (active) | 0.504 µM (active) | 0.156 µM (active) | 1.48 µM (inactive) | 0.319 µM (active) |  |
| O=C(O)C[n+]1cn(NC(=O)Cc2ccccc2)cn1 | > 10 µM (inactive) | > 10 µM (inactive) | > 10 µM (inactive) | > 10 µM (inactive) | > 10 µM (inactive) | 0.501 µM (active) |  | > 10 µM (inactive) | 0.158 µM (active) | > 10 µM (inactive) | > 10 µM (inactive) | > 10 µM (inactive) | > 10 µM (inactive) | > 10 µM (inactive) |  | > 10 µM (inactive) | > 10 µM (inactive) | > 10 µM (inactive) | 0.664 µM (active) | > 10 µM (inactive) |
| COc1cc(C2c3cc4c(cc3C(=O)C3CCC(=O)N32)OCO4)cc(OC)c1O (centres undefined) | > 50 µM (inactive) |  | > 50 µM (inactive) | > 50 µM (inactive) | > 50 µM (inactive) | > 50 µM (inactive) | > 50 µM (inactive) | > 50 µM (inactive) |  | > 50 µM (inactive) | > 50 µM (inactive) |  | > 50 µM (inactive) | > 50 µM (inactive) | > 50 µM (inactive) |  |  | > 50 µM (inactive) | > 50 µM (inactive) | > 50 µM (inactive) |
| Cc1ccc(S(=O)(=O)N/N=C/c2oc(-c3ccccc3Cl)c(-c3ccccc3Cl)c2[N+](=O)[O-])cc1 | 13.2 µM (inactive) | 59 µM (inactive) | > 100 µM (inactive) | 13.9 µM (inactive) |  | 3.73 µM (inactive) |  | 15.6 µM (inactive) |  | 13.4 µM (inactive) | 28.5 µM (inactive) |  | 20.8 µM (inactive) | 22.9 µM (inactive) | 8.02 µM (inactive) | 36.1 µM (inactive) | 21 µM (inactive) | 14.8 µM (inactive) | 17.8 µM (inactive) |  |
| CC1(C)O[C@@H](CP(c2ccc3ccccc3c2)c2ccc3ccccc3c2)[C@H](CP(c2ccc3ccccc3c2)c2ccc3ccccc3c2)O1 | > 100 µM (inactive) | > 100 µM (inactive) | 70.1 µM (inactive) | > 100 µM (inactive) | 72.3 µM (inactive) |  | 53.5 µM (inactive) | > 100 µM (inactive) |  | > 100 µM (inactive) |  | > 100 µM (inactive) |  | > 100 µM (inactive) |  | > 100 µM (inactive) | > 100 µM (inactive) | > 100 µM (inactive) | > 100 µM (inactive) | > 100 µM (inactive) |
| O=C1CSc2nnc(CCCCCCCCc3nnc4n3NC(=O)CS4)n2N1 | > 100 µM (inactive) |  | > 100 µM (inactive) | > 100 µM (inactive) | 45.6 µM (inactive) | 28.6 µM (inactive) | > 100 µM (inactive) | 32.1 µM (inactive) |  | > 100 µM (inactive) | 82 µM (inactive) | 69.3 µM (inactive) | > 100 µM (inactive) | > 100 µM (inactive) | 31.5 µM (inactive) | 43.3 µM (inactive) | > 100 µM (inactive) | > 100 µM (inactive) | > 100 µM (inactive) | > 100 µM (inactive) |
| Nc1c(S(=O)(=O)c2ccccc2)c2nc3ccccc3nc2n2c1nc1ccccc12 | 34.3 µM (inactive) | > 100 µM (inactive) | > 64 µM (inactive) | > 64.4 µM (inactive) |  | > 100 µM (inactive) |  | > 51.8 µM (inactive) |  | 19.4 µM (inactive) | > 100 µM (inactive) |  | > 100 µM (inactive) | 10.4 µM (inactive) | > 100 µM (inactive) | > 45.3 µM (inactive) | > 78.5 µM (inactive) | > 48.1 µM (inactive) | > 62.8 µM (inactive) |  |
